System: 11G2L cDNA (creatine transporter mRNA)
Test: Differential display of hypothalamic mRNA (band 11G2L)
Type: in vivo, rat
Settings: icv CoPP 0.4 umol/kg, 48 hours, absent in vehicle fed and fasted rats
Procedure: RNA Extraction from Rat Hypothalamus. Adult male Sprague-Dawley rats were randomly separated into three groups. Group 1 (control) was injected icv with saline and fed ad lib. Group 2 (fasted) was injected icv with saline and allowed ad lib access to water only; Group 3 (CoPP) was injected icv with CoPP 0.4 umol/kg body weight and fed ad lib. After 24 and 48 hours, weights were measured. Only those rats with robust weight loss of at least 10% of initial body weight 48 hours after treatment were chosen for the CoPP group. Eleven rats from each group were then killed by decapitation, using procedures outlined in the Animal Welfare Act and as approved by the University of Vermont, Office of Animal Care Management. The hypothalamic block of each rat was dissected from the rat's brain as described and immediately homogenized with RNase-free homogenizer. Total RNA was extracted using an Ultraspec-II RNA kit (Biotecx Laboratories, Inc., Houston, Tex.) following the manufacturer's procedures and stored at −80 degrees C. until analysis.
Differential Display-Reverse Transcription-Polymerase Chain Reaction (DD-RT-P). The RNAimage mRNA Differential Display system was purchased from GenHunter Corporation (Nashville, Tenn.). Three anchored H-T11M (where M refer to G, A, or C) primers and 12 sets of arbitrary primers (HAP 1 to 12) were chosen to use in this particular experiment. […]

C=Cc1c(C)c2cc3[nH]c(cc4nc(cc5nc(cc1[nH]2)C(C)=C5CCC(=O)[O-])C(CCC(=O)[O-])=C4C)c(C)c3C=C.[Co+2] [CoPP, Cobaltic protoporphyrin IX]
cDNA band 11G2L in differential display: present
